The values below come from paper PMC9606955, “In Vitro Activity of Essential Oils Distilled from Colombian Plants against Candida auris and Other Candida Species with Different Antifungal Susceptibility Profiles” (Molecules, 2022).

Molecules are shown by their SMILES. ≈ marks a conversion by molar mass, not a printed value.

Experiment [1] concerns C. albicans ATCC 64550. Description: MIC, CLSI M27 broth microdilution. Format: cell-based, Candida albicans. The note with it: antifungal drugs; for MIC: Candida albicans, ATCC64550, geometric mean. The text has this:
(§1) The fungal strains used in this study were C. albicans ATCC 10231, C. albicans ATCC 64550, C. parapsilosis ATCC 22019, C. tropicalis ATCC 750, C. tropicalis ATCC 200956 (resistant to azoles and AMB), C. glabrata LMDM 34 (resistant to echinocandins), C. metapsilosis MUM 15.12, C. orthopsilosis MUM 17.13, C. lusitaniae MUM 17.08, C. krusei ATCC 6258 (Issatchenkia orientalis ATCC 6258), and C. auris CDC B11903. Additionally, nine clinical isolates were included: C. parapsilosis Synlab 406 (FLC-resistant) and eight C. auris isolates identified by MALDI-TOF MS (Bruker Daltonics, Bremen, Germany) according to Zhao et al.. These yeasts were cultured on Sabouraud Dextrose Agar (SDA; Sigma-Aldrich, St. Louis, MO, USA) for 24 h at 35 °C.
(§2) Antifungal susceptibility testing was performed according to Clinical and Laboratory Standards Institute M27, 4th Edition (CLSI standard M27, 4th Edition). Some modifications were applied for evaluation of the antifungal activity of EOs and terpenes. Initially, a screening was carried out to determine the antifungal activity of the EOs and of commercial terpenes. Stock concentrations of EOs and terpenes were prepared at 512 µg/mL and an inoculum of 2.5 × 10^3 CFU/mL of each yeast was prepared in RPMI 1640-MOPS (Sigma- Aldrich St. Louis, MO, USA). Thereafter, 100 µL of each stock solution of EOs or terpenes was dispensed in 96-well microdilution plates (Corning®, Costar®, NY, USA) and 100 µL of each yeast inoculum was added. […] Microdilution plates were incubated at 35 °C and, after 24 h, the presence or absence of growth was visually checked using a manual mirror viewer and then compared with the amount of growth in the control (no EO or terpene). Compounds able to inhibit yeast growth were tested to determine the minimal inhibitory concentration (MIC) as follows: 100 µL of 10 two-fold dilutions of the EOs or commercial terpenes was dispensed in 96-well microplates and the yeast inoculum was added. Final concentrations of the EOs or terpenes ranged from 0.5 µg/mL to 256 µg/mL. Microdilution plates were incubated at 35 °C for 24 h. MICs were visually determined at the lowest concentration that produced visual inhibition compared to the growth control. The assays were performed at least three times in duplicate on different days. The results were expressed as geometric means (GM) and ranges. As an antifungal susceptibility testing control, the activity of ITC and AMB against the reference strains C. krusei ATCC 6258 and C. parapsilosis ATCC 22019 was evaluated in all experiments following the CLSI standard M27, 4th Edition. It was mandatory that the MIC values remained in the accepted range.

Experiment [2] relates to C. albicans ATCC 10231. Kind of experiment: MIC, CLSI M27 broth microdilution. The conditions noted are these: antifungal drugs; for MIC: Candida albicans, ATCC10231, geometric mean. Format: cell-based, Candida albicans.
Excerpt: as §1, §2

For experiment [3], the system named is C. lusitaniae MUM 17.08. Kind of experiment: MIC, CLSI M27 broth microdilution. Format: cell-based, Candida lusitaniae. The note with it: C. lusitaniae MUM 17.08, antifungal drugs; for MIC: Clavispora lusitaniae, MUM17.08, geometric mean, read-out: MIC GM. An outline of the steps:
(§3)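 CLSI M27 (4th ed.) broth microdilution, modified for essential oils and terpenes: yeasts grown on SDA 24 h at 35 °C, inoculum 2.5 × 10^3 CFU/mL in RPMI 1640-MOPS, two-fold dilutions at 0.5–256 µg/mL final. Visual MIC after 24 h at 35 °C; ≥3 runs in duplicate, reported as geometric mean and range.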

Experiment [4] deals with C. krusei ATCC 6258. Kind of experiment: MIC, CLSI M27 broth microdilution. The note with it: C. krusei ATCC 6258, antifungal drugs; for MIC: Pichia kudriavzevii, ATCC6258, geometric mean, read-out: MIC GM. Format: cell-based, Candida krusei. A digest of the protocol:
as §3

In experiment [5] the test system is C. auris. Kind of experiment: MIC, CLSI M27 broth microdilution, several C. auris strains together. The format is cell-based, Candida auris. The conditions noted are these: C. auris Ca 41, Ca 45 and Ca 46 together.
Excerpt: as §1
Antifungal susceptibility testing was performed according to Clinical and Laboratory Standards Institute M27, 4th Edition (CLSI standard M27, 4th Edition). […] MICs were visually determined at the lowest concentration that produced visual inhibition compared to the growth control. […] The results were expressed as geometric means (GM) and ranges. As an antifungal susceptibility testing control, the activity of ITC and AMB against the reference strains C. krusei ATCC 6258 and C. parapsilosis ATCC 22019 was evaluated in all experiments following the CLSI standard M27, 4th Edition. […]

On to `OC(Cn1cncn1)(Cn1cncn1)c1ccc(F)cc1F` [FLC, fluconazole], for which the MIC in experiment [1] was 5.6 µg/mL (≈ 18.3 µM); in experiment [2], 4 µg/mL (≈ 13.1 µM); in experiment [3] it was 0.5 µg/mL (≈ 1.63 µM); in experiment [4] it was 8 µg/mL (≈ 26.1 µM). Also, the “MIC Range” value is 4 to 8 µg/mL in experiment [1], 4 µg/mL (≈ 13.1 µM) in experiment [2], 0.5 µg/mL (≈ 1.63 µM) in experiment [3] and 8 µg/mL (≈ 26.1 µM) in experiment [4].

For the compound `C[C@@H]1[C@H](O)[C@@H](C)/C=C/C=C/C=C/C=C/C=C/C=C/C=C/[C@H](O[C@@H]2O[C@H](C)[C@@H](O)[C@H](N)[C@@H]2O)C[C@@H]2O[C@](O)(C[C@@H](O)C[C@@H](O)[C@H](O)CC[C@@H](O)C[C@@H](O)CC(=O)O[C@H]1C)C[C@H](O)[C@H]2C(=O)O` [AMB, amphotericin B], the MIC Range is 1 to 2 µg/mL in experiment [5]; 0.03 to 0.12 µg/mL in experiment [1]; 0.03 to 0.12 µg/mL in experiment [2]; 0.03 µg/mL (≈ 0.0325 µM) in experiment [3]; 0.12 to 0.25 µg/mL in experiment [4]. Also, the MIC in experiment [1] amounted to 0.04 µg/mL (≈ 0.0433 µM); in experiment [2] it was 0.04 µg/mL (≈ 0.0433 µM); in experiment [3] it was 0.03 µg/mL (≈ 0.0325 µM); in experiment [4], 0.15 µg/mL (≈ 0.162 µM).
